Consider 20 compounds from patent US20220227785A1, “NOVEL PHENYL AND PYRIDYL UREAS ACTIVE AGAINST THE HEPATITIS B VIRUS (HBV)” (AICURIS GMBH & CO. KG, priority 2019, published 2022).

pEC50: −log10 of the molar value.

The subject of the experiment is HBV in HepAD38 cells. To be noted: Hepatitis B virus, HePAD38, 144 h, read-out: Cell activity.
Consider `CN(C(=O)c1[nH]nc2c1CN(C(=O)Nc1ccc(F)c(Cl)c1)CC2)C1(c2ncc(C(=O)O)cn2)CC1` [Example 12, 2-(1-{N-methyl-5-[(3-chloro-4-fluorophenyl)carbamoyl]-2H,4H,5H,6H,7H-pyrazolo[4,3-c]pyridine-3-amido}cyclopropyl)pyrimidine-5-carboxylic acid], for which the pEC50 was 5.00 to 6.00.

For the compound `CN(C(=O)c1cnn2c1CN(C(=O)Nc1ccc(F)c(Cl)c1)CC2)C1(c2ccc(C(=O)O)cc2)CC1` [Example 2, 4-(1-{N-methyl-5-[(3-chloro-4-fluorophenyl)carbamoyl]-4H,5H,6H,7H-pyrazolo[1,5-a]pyrazine-3-amido}cyclopropyl)benzoic acid], the pEC50 was above 6.00.

With `CN(C(=O)c1cnn2c1CN(C(=O)Nc1ccc(F)c(Cl)c1)CC2)C1(c2ccccc2C(=O)O)CC1` [Example 29, 2-(1-{N-methyl-5-[(3-chloro-4-fluorophenyl)carbamoyl]-4H,5H,6H,7H-pyrazolo[1,5-a]pyrazine-3-amido}cyclopropyl)benzoic acid], the pEC50 was above 6.00.

For `CN(C(=O)c1cnn2c1CN(C(=O)Nc1ccc(F)c(Cl)c1)CC2)C1(c2cccc(C(=O)O)c2)CC1` [Example 1, 3-(1-{N-methyl-5-[(3-chloro-4-fluorophenyl)carbamoyl]-4H,5H,6H,7H-pyrazolo[1,5-a]pyrazine-3-amido}cyclopropyl)benzoic acid], the pEC50 is above 6.00.

For the compound `O=C(O)c1cccc(C2(NC(=O)c3cnn4c3CN(C(=O)Nc3ccc(F)c(Cl)c3)CC4)CC2)c1` [Example 18, 3-(1-{5-[(3-chloro-4-fluorophenyl)carbamoyl]-4H,5H,6H,7H-pyrazolo[1,5-a]pyrazine-3-amido}cyclopropyl)benzoic acid], the pEC50 was 5.00 to 6.00.

Turning to `CN(C(=O)c1cnn2c1CN(C(=O)Nc1ccc(F)c(Cl)c1)CC2)C1(Cc2ccc(C(=O)O)cc2)CC1` [Example 16, 4-[(1-{N-methyl-5-[(3-chloro-4-fluorophenyl)carbamoyl]-4H,5H,6H,7H-pyrazolo[1,5-a]pyrazine-3-amido}cyclopropyl)methyl]benzoic acid], the pEC50 was above 6.00.

In the case of `CN(C(=O)c1[nH]nc2c1CN(C(=O)Nc1ccc(F)c(Cl)c1)CC2)C1(c2ccc(C(=O)O)cc2)CC1` [Example 13, 4-(1-{N-methyl-5-[(3-chloro-4-fluorophenyl)carbamoyl]-2H,4H,5H,6H,7H-pyrazolo[4,3-c]pyridine-3-amido}cyclopropyl)benzoic acid], the pEC50 is above 4.00.

With `CCN1C(=O)c2c3c(nn2CCC12CC2)CCN(C(=O)Nc1ccc(F)c(Cl)c1)C3` [Example 28, N-(3-chloro-4-fluorophenyl)-13′-ethyl-14′-oxo-4′,8′,9′,13′-tetraazaspiro[cyclopropane-1,12′-tricyclo[7.5.0.0^2,^7]tetradecane]-1′,7′-diene-4′-carboxamide], the pEC50 is above 6.00.

For `CC1Cn2ncc(C(=O)N(C)C3(c4ccc(C(=O)O)cc4)CC3)c2CN1C(=O)Nc1ccc(F)c(Cl)c1` (centres unmarked) [Example 9, 4-(1-{N-methyl-5-[(3-chloro-4-fluorophenyl)carbamoyl]-6-methyl-4H,5H,6H,7H-pyrazolo[1,5-a]pyrazine-3-amido}cyclopropyl)benzoic acid], the pEC50 is above 6.00.

As to `CN1C(=O)c2c3c(nn2CC12CC2)CCN(C(=O)Nc1ccc(F)c(F)c1)C3` [Example 10, N-(3,4-difluorophenyl)-4′-methyl-3′-oxo-4′,7′,8′,12′-tetraazaspiro[cyclopropane-1,5′-tricyclo[7.4.0.0^2,^7]tridecane]-1′,8′-diene-12′-carboxamide], the pEC50 was above 6.00.

Consider `O=C(O)c1cnc(C2(NC(=O)c3cnn4c3CN(C(=O)Nc3ccc(F)c(Cl)c3)CC4)CC2)nc1` [Example 5, 2-(1-{5-[(3-chloro-4-fluorophenyl)carbamoyl]-4H,5H,6H,7H-pyrazolo[1,5-a]pyrazine-3-amido}cyclopropyl)pyrimidine-5-carboxylic acid], for which the pEC50 was above 6.00.

On to `O=C(O)c1ccc(C2(NC(=O)c3cnn4c3CN(C(=O)Nc3ccc(F)c(Cl)c3)CC4)CC2)nc1` [Example 6, 6-(1-{5-[(3-chloro-4-fluorophenyl)carbamoyl]-4H,5H,6H,7H-pyrazolo[1,5-a]pyrazine-3-amido}cyclopropyl)pyridine-3-carboxylic acid], for which the pEC50 is above 6.00.

For `CN(C(=O)c1cnn2c1CN(C(=O)Nc1ccc(F)c(Cl)c1)CC2)C1(c2cc(C(=O)O)on2)CC1` [Example 27, 3-(1-{N-methyl-5-[(3-chloro-4-fluorophenyl)carbamoyl]-4H,5H,6H,7H-pyrazolo[1,5-a]pyrazine-3-amido}cyclopropyl)-1,2-oxazole-5-carboxylic acid #], the pEC50 is above 6.00.

Regarding `C[C@@H](NC(=O)c1noc2c1CN(C(=O)Nc1ccc(F)c(Cl)c1)CC2)C(F)(F)F` [Example 8, N5-(3-chloro-4-fluorophenyl)-N3-[(2R)-1,1,1-trifluoropropan-2-yl]-4H,5H,6H,7H-[1,2]oxazolo[4,5-c]pyridine-3,5-dicarboxamide], the pEC50 is above 6.00.

Take `CN1C(=O)c2c3c(nn2CC12CC2)CCN(C(=O)Nc1ccc(F)c(Cl)c1)C3` [Example 4, N-(3-chloro-4-fluorophenyl)-4′-methyl-3′-oxo-4′,7′,8′,12′-tetraazaspiro[cyclopropane-1,5′-tricyclo[7.4.0.0^2,7]tridecane]-1′,8′-diene-12′-carboxamide]: the pEC50 is above 6.00.

Consider `CC1Cn2cnc(C(=O)N(C)C3(c4cccc(C(=O)O)c4)CC3)c2CN1C(=O)Nc1ccc(F)c(Cl)c1` (centres unmarked) [Example 14, 3-(1-{N-methyl7-[(3-chloro-4-fluorophenyl)carbamoyl]-6-methyl-5H,6H,7H,8H-imidazo[1,5-a]pyrazine-1-amido}cyclopropyl)benzoic acid], for which the pEC50 was above 6.00.

Regarding `CN(C(=O)c1cnn2c1CN(C(=O)Nc1ccc(F)c(Cl)c1)CC2)C1(c2nccc(C(=O)O)n2)CC1` [Example 15, 2-(1-{N-methyl-5-[(3-chloro-4-fluorophenyl)carbamoyl]-4H,5H,6H,7H-pyrazolo[1,5-a]pyrazine-3-amido}cyclopropyl)pyrimidine-4-carboxylic acid], the pEC50 was 5.00 to 6.00.

For `CN1C(=O)c2c3c(nn2CCC12CC2)CCN(C(=O)Nc1ccc(F)c(Cl)c1)C3` [Example 11, N-(3-chloro-4-fluorophenyl)-13′-methyl-14′-oxo-4′,8′,9′,13′-tetraazaspiro[cyclopropane-1,12′-tricyclo[7.5.0.0^2,^7]tetradecane]-1′,7′-diene-4′-carboxamide], the pEC50 was above 6.00.

In the case of `O=C(O)c1ccc(C2(NC(=O)c3cnn4c3CN(C(=O)Nc3ccc(F)c(Cl)c3)CC4)CC2)cc1` [Example 17, 4-(1-{5-[(3-chloro-4-fluorophenyl)carbamoyl]-4H,5H,6H,7H-pyrazolo[1,5-a]pyrazine-3-amido}cyclopropyl)benzoic acid], the pEC50 is above 4.00.

Consider `COCC1(N(C)C(=O)c2noc3c2CN(C(=O)Nc2ccc(F)c(Cl)c2)CC3)CC1` [Example 3, N5-(3-chloro-4-fluorophenyl)-N3-[1-(methoxymethyl)cyclopropyl]-N3-methyl-4H,5H,6H,7H-[1,2]oxazolo[4,5-c]pyridine-3,5-dicarboxamide], for which the pEC50 is above 6.00.
